From US20090291964A1, “Potentiators of Antibacterial Activity” (priority 2003, published 2009)
Where two headings read alike, the source gives them in different places.

Tests used:
Assay type in all cases: cell-based
[1] = test system: S. aureus SA-K2068 (non-NorA multidrug efflux pump overproducing); test: microbe, parasite or virus in culture
Method in brief: (§1)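 Fluoroquinolone MICs determined with and without efflux pump inhibitor in S. aureus SA-1199B (NorA overproducer with A116E GrlA mutation) and SA-K2068 (SA-8325-4 with a non-NorA multidrug efflux pump overproducing mutation). All assays contained 1% DMSO final.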

S. pneumoniae ATCC 10015 = test: MIC by NCCLS microdilution, EtBr/EPI with and without EPI; conditions: for MIC: Streptococcus pneumoniae, ATCC10015
Description: (§2) 3% sterile laked horse blood (Quad Five, Ryegate, Mont.) was added to assays for E. faecalis and S. Pneumoniae. A final concentration of 1% DMSO was present in all assays.
(§3) EtBr is a general substrate for many different efflux pumps in bacteria. Markham et al., “Multiple Novel Inhibitors of the NorA Multidrug Transporter of Staphylococcus aureus”, Antimicrob. Agents Chemother. 43:2404-2408 (1999). Since EtBr is a non-specific DNA intercalator, the only known mechanism of resistance to EtBr is via efflux. Markham et al., “Multiple Novel Inhibitors of the NorA Multidrug Transporter of Staphylococcus aureus”, Antimicrob. Agents Chemother. 43:2404-2408 (1999).

E. faecalis ATCC 29212 = test: as above; conditions: E. faecalis ATCC 29212; for MIC: Enterococcus faecalis, ATCC29212
Description: as §2, §3

S. aureus ATCC 29213 [2] = test: Minimal effective concentration (MEC) of EPI for gatifloxacin; conditions: lowest amount of EPI which produces the maximum effect on the MIC of gatifloxacin
Description: The MEC was determined as the minimal concentration of EPI that produced the maximal reduction in substrate MIC.
Since any given compound may be recognized by an unknown number of efflux pumps in a particular organism, we reasoned that the MEC of A-106 and C-9 should vary for different antibiotics. Also, the MEC of A-106 and C-9 should vary with the degree of efflux expression in a given strain. […] This was confirmed with two other wild type strains, SA-8325-4 and SA-1199 (Table 3).

[3] = test system: S. aureus SA-1199B (NorA overproducing); test: MIC of fluoroquinolones with and without EPI
Method in brief: as §1

S. aureus SA-8325-4 = test: MIC of fluoroquinolones with and without EPI; conditions: S. aureus SA-8325-4, EPI at 4X the MEC for EtBr, VX-710 at 100 μg/ml
Method in brief: (§4)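 Fluoroquinolone MICs determined with and without efflux pump inhibitor; all assays contained 1% DMSO final. SA-8325-4 is NCTC 8325 cured of prophages; SA-1199 is a susceptible clinical isolate.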

[4] = test system: S. aureus SA-1199 (clinical isolate, susceptible); test: MIC of fluoroquinolones with and without EPI; conditions: S. aureus SA-1199, EPI at 4X the MEC for EtBr, VX-710 at 100 μg/ml
Method in brief: as §4

S. aureus ATCC 29213 [5] = test: MIC by NCCLS microdilution, antibacterial agents with and without EPI; conditions: for MIC: Staphylococcus aureus, ATCC29213, S. aureus ATCC 29213
Method in brief: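 Efflux pump inhibitors were combined at fixed concentrations with antibiotics from several classes and tested against Staphylococcus aureus ATCC 29213 to compare minimum inhibitory concentrations with and without inhibitor. The inhibitor level was tied to its minimal effective concentration for ethidium bromide, a general efflux pump substrate. All assays contained a final concentration of 1% DMSO.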

[6] = S. aureus K2068, EPI at 4X the MEC for EtBr, VX-710 at 100 μg/ml
[7] = Staphylococcus aureus, read-out: MIC of EtBr with EPI
[8] = EPI alone, read-out: MIC of EPI
[9] = EPIs used at the MEC, except VX-710 at 100 μg/ml, read-out: MIC of EtBr with EPI
[10] = S. aureus SA-1199B, EPI at 4X the MEC for EtBr, VX-710 at 100 μg/ml
[11] = S. aureus ATCC 29213, EPI at 4X the MEC for EtBr, VX-710 at 100 μg/ml

Q: With `COC(=O)[C@H]1[C@H]2C[C@@H]3c4[nH]c5cc(OC)ccc5c4CCN3C[C@H]2C[C@@H](OC(=O)c2cc(OC)c(OC)c(OC)c2)[C@@H]1OC` [reserpine, reference compound] as the compound, how does the “MIC of gatifloxacin with EPI” value ([1]; S. aureus K2068 (nonNorA pump overproducer) (Table 4)) read?
A: 0.25 µg/mL

Q: What about the “MIC of ciprofloxacin with EPI” value [1, 6] of the same compound?
A: 0.5 µg/mL

Q: And the “MIC of gatifloxacin with EPI” value [1, 6]?
A: 0.25 µg/mL

Q: And the “MIC of gentamicin with EPI” value [1, 6]?
A: 0.063 µg/mL

Q: And the “MIC of levofloxacin with EPI” value [1, 6]?
A: 0.5 µg/mL

Q: What about the “MIC of norfloxacin with EPI” value [1, 6] of the same compound?
A: 1 µg/mL

Q: What about the MIC [1, 7] of the same compound?
A: 1.6 µg/mL

Q: And the “Fold-reduction in MIC” value ([1]; gatifloxacin, S. aureus K2068 (nonNorA pump overproducer))?
A: 4

Q: What about the “Fold-reduction in EtBr MIC” value (S. pneumoniae ATCC 10015; S. pneumoniae ATCC 10015, EPIs used at the MEC, except VX-710 at 100 μg/ml) of the same compound?
A: 50

Q: What about the “reduction in the MIC of EtBr” value (S. pneumoniae ATCC 10015; S. pneumoniae, reserpine 25 μg/ml (maximal subinhibitory concentration)) of the same compound?
A: 50 fold

Q: And the MIC (S. pneumoniae ATCC 10015; S. pneumoniae ATCC 10015, EPI alone, read-out: MIC of EPI)?
A: 50 µg/mL

Q: And the MIC (S. pneumoniae ATCC 10015; S. pneumoniae ATCC 10015, EPIs used at the MEC, except VX-710 at 100 μg/ml, read-out: MIC of EtBr with EPI)?
A: 0.04 µg/mL

Q: And the MIC (S. pneumoniae ATCC 10015; S. pneumoniae, read-out: MIC of EPI alone)?
A: 50 µg/mL

Q: What about the “Fold-reduction in EtBr MIC” value (E. faecalis ATCC 29212; EPIs used at the MEC, except VX-710 at 100 μg/ml) of the same compound?
A: 8

Q: What about the MIC (E. faecalis ATCC 29212; [8]) of the same compound?
A: > 100 µg/mL

Q: And the MIC (E. faecalis ATCC 29212; [9])?
A: 0.8 µg/mL

Q: What about the MEC (S. aureus ATCC 29213 [2]) of the same compound?
A: >100 µg/mL

Q: What about the “MIC of gatifloxacin with EPI” value ([3]; S. aureus SA-1199B (NorA overproducer) (Table 4)) of the same compound?
A: 0.25 µg/mL

Q: And the “MIC of ciprofloxacin with EPI” value [3, 10]?
A: 0.5 µg/mL

Q: And the “MIC of gatifloxacin with EPI” value [3, 10]?
A: 0.125 µg/mL

Q: What about the “MIC of gentamicin with EPI” value [3, 10] of the same compound?
A: 0.125 µg/mL

Q: And the “MIC of levofloxacin with EPI” value [3, 10]?
A: 0.5 µg/mL

Q: And the “MIC of norfloxacin with EPI” value [3, 10]?
A: 4 µg/mL

Q: And the MIC [3, 7]?
A: 0.8 µg/mL

Q: What about the “Fold-reduction in MIC” value ([3]; gatifloxacin, S. aureus SA-1199B (NorA overproducer)) of the same compound?
A: 2

Q: What about the “MIC of ciprofloxacin with EPI” value (S. aureus SA-8325-4) of the same compound?
A: 0.125 µg/mL

Q: And the “MIC of gatifloxacin with EPI” value (S. aureus SA-8325-4)?
A: 0.125 µg/mL

Q: What about the “MIC of gentamicin with EPI” value (S. aureus SA-8325-4) of the same compound?
A: 0.063 µg/mL

Q: And the “MIC of levofloxacin with EPI” value (S. aureus SA-8325-4)?
A: 0.25 µg/mL

Q: And the “MIC of norfloxacin with EPI” value (S. aureus SA-8325-4)?
A: 0.25 µg/mL

Q: What about the MIC (S. aureus SA-8325-4; Staphylococcus aureus, SA83254, read-out: MIC of EtBr with EPI) of the same compound?
A: 0.4 µg/mL

Q: What about the “MIC of ciprofloxacin with EPI” value [4] of the same compound?
A: 0.063 µg/mL

Q: And the “MIC of gatifloxacin with EPI” value [4]?
A: 0.063 µg/mL

Q: And the “MIC of gentamicin with EPI” value [4]?
A: 0.125 µg/mL

Q: And the “MIC of levofloxacin with EPI” value [4]?
A: 0.125 µg/mL

Q: And the “MIC of norfloxacin with EPI” value [4]?
A: 0.125 µg/mL

Q: What about the MIC [4, 7] of the same compound?
A: 0.4 µg/mL

Q: And the “MIC of gatifloxacin with EPI” value (S. aureus ATCC 29213 [5]; S. aureus ATCC 29213 (Table 4))?
A: 0.125 µg/mL

Q: What about the “MIC of ciprofloxacin with EPI” value (S. aureus ATCC 29213 [5]; [11]) of the same compound?
A: 0.063 µg/mL

Q: And the “MIC of gatifloxacin with EPI” value (S. aureus ATCC 29213 [5]; [11])?
A: 0.063 µg/mL

Q: What about the “MIC of gentamicin with EPI” value (S. aureus ATCC 29213 [5]; [11]) of the same compound?
A: 0.125 µg/mL

Q: And the “MIC of levofloxacin with EPI” value (S. aureus ATCC 29213 [5]; [11])?
A: 0.125 µg/mL

Q: What about the “MIC of norfloxacin with EPI” value (S. aureus ATCC 29213 [5]; [11]) of the same compound?
A: 0.25 µg/mL

Q: And the “Fold-reduction in EtBr MIC” value (S. aureus ATCC 29213 [5]; S. aureus ATCC 29213, EPIs used at the MEC, except VX-710 at 100 μg/ml)?
A: 4

Q: What about the MIC (S. aureus ATCC 29213 [5]; [8]) of the same compound?
A: > 100 µg/mL

Q: And the MIC (S. aureus ATCC 29213 [5]; EPI at 4X the MEC for EtBr, VX-710 at 100 μg/ml, read-out: MIC of EtBr with EPI)?
A: 0.4 µg/mL

Q: What about the MIC (S. aureus ATCC 29213 [5]; [9]) of the same compound?
A: 1.6 µg/mL

Q: What about the “Fold-reduction in MIC” value (S. aureus ATCC 29213 [5]; gatifloxacin, S. aureus ATCC 29213) of the same compound?
A: 1
